Assay: Percutaneous absorption test of genistein-loaded amphiphilic polymer solution, Franz diffusion cell
Assay type: in vitro ADME, porcine
Procedure: The percutaneous absorption of genistein of the amphiphilic polymer solution in which genistein was loaded and which was prepared as above was evaluated using porcine skin (2×2 cm, thickness: 1000 μm) and a Franz diffusion cell (FIG. 2). A phosphate buffered saline (PBS) solution containing 30 wt % of dipropylene glycol (DPG) was used as an aqueous solution (acceptor solution) to maintain a sink condition with respect to genistein. 0.2 g of the amphiphilic polymer solution on which genistein was loaded was loaded in a Franz diffusion cell on which the porcine skin was mounted, and the test was performed at 32° C. similar to a skin temperature for 24 hours. Skin tissue into which genistein was absorbed was pulverized and extracted to analyze the content of genistein absorbed into the skin tissue and the content of genistein absorbed into the acceptor solution through HPLC, and the results are shown in Table 3.

Skin penetration amount: 0.15 μg/cm^2
Skin penetration ratio: 0.09%
Substance: polycaprolactone (B)-polyethylene glycol (A)-polycaprolactone (B) copolymer [Comparative Example 1]
